In brackets after ≈: the same amount, converted by molar mass.
Assays:
[1] = tested on: methicillin-resistant Staphylococcus aureus (MRSA); assay: Antibacterial assay (Test C, broth microdilution MIC) against MRSA; format: cell-based; conditions: minimal inhibitory concentration, 37° C., growth read after 24 to 48 hours at OD 600 nm, read-out: MRSA (MIC ug/ml)
Protocol: (§1) Test C. Antibacterial Assay.
(§2) Antibacterial activity can be determined as per Clinical and Laboratory Standards Institute (CLSI) guidelines using a broth microdilution assay in which log-phase bacteria are grown at 37° C. in appropriate medium containing two-fold serial dilutions of a compound to yield final concentrations ranging from 256 to 0.06 μg/mL. For determination of minimal inhibitory concentration (MIC) values, bacterial growth is monitored after 24 to 48 hours by measuring optical density at 600 nm.
(§3) Using a procedure similar to Test C, representative compounds of the invention were tested against methicillin-susceptible Staphylococcus aureus (MSSA) and methicillin-resistant Staphylococcus aureus (MRSA).

[2] = tested on: methicillin-susceptible Staphylococcus aureus (MSSA); assay: Antibacterial assay (Test C, broth microdilution MIC) against MSSA; format: cell-based; conditions: minimal inhibitory concentration, 37° C., growth read after 24 to 48 hours at OD 600 nm, read-out: MSSA (MIC ug/ml)
Protocol: as §1, §2, §3

Compound | MIC [1] [µg/mL] | MIC [2] [µg/mL]
C[n+]1cc(-c2ccccc2)nc2ccccc21 [Example 1] | 8 | 2
C[n+]1cc(-c2cccc(F)c2)nc2ccccc21 [Example 2] | 4 | 2
C[n+]1cc(-c2cccc(-c3ccccc3)c2)nc2ccccc21 [Example 3] | 0.25 | 0.25
C[n+]1cc(-c2cccc(C(C)(C)C)c2)nc2ccccc21 [Example 4] | 1 | 0.5
C[n+]1cc(-c2ccc(C(C)(C)C)cc2)nc2ccccc21 [Example 5] | 1 | 0.5
COC(=O)c1cc(-c2ccc(C(C)(C)C)cc2)cc(-c2c[n+](C)c3ccccc3n2)c1 [Example 6] | 1 | 0.5
C[n+]1cc(-c2cc(C(N)=O)cc(-c3ccc(C(C)(C)C)cc3)c2)nc2ccccc21 [Example 7] | 2 | 2
C[n+]1cc(-c2cc(C(=O)NCCO)cc(-c3ccc(C(C)(C)C)cc3)c2)nc2ccccc21 [Example 8] | 4 | 4
CC(C)(C)c1ccc(-c2cc(C(=O)NCCN)cc(-c3cnc4ccccc4n3)c2)cc1 [Example 9] | 4 (≈ 9.42 µM) | 4 (≈ 9.42 µM)
CC(C)(C)c1ccc(-c2cnc3c(CNC(=N)N)cccc3n2)cc1 [Example 10] | 2 (≈ 6 µM) | 2 (≈ 6 µM)
CC(C)(C)c1cccc(-c2cnc3c(CNC(=N)N)cccc3n2)c1 [Example 11] | 2 (≈ 6 µM) | 1 (≈ 3 µM)
CC(C)(C)c1ccc(-c2ncnc3c(CNC(=N)N)cccc23)cc1 [Example 12] | 4 (≈ 12 µM) | 2 (≈ 6 µM)
CC(=N)NCc1cccc2c(-c3ccc(C(C)(C)C)cc3)ncnc12 [Example 13] | 64 (≈ 193 µM) | 32 (≈ 96.3 µM)
CC(C)(C)c1ccc(-c2ncnc3c(CN)cccc23)cc1 [Example 14] | 64 (≈ 220 µM) | 32 (≈ 110 µM)

More lines, now with the values ahead:

MIC [1] [µg/mL] | MIC [2] [µg/mL] | Compound
> 64 | > 64 | Cc1cccc(-c2nc3ccccc3nc2NCCN)c1 [Example 15]
64 (≈ 192 µM) | 8 (≈ 24 µM) | CC(C)(C)c1ccc(-c2cccc3c(CNC(=N)N)ncnc23)cc1 [Example 16]
8 (≈ 24 µM) | 4 (≈ 12 µM) | CC(C)(C)c1ccc(-c2ccnc3c(CNC(=N)N)ccnc23)cc1 [Example 17]
> 64 | > 64 | CC(C)(C)c1ccc(-c2ccnc3c(CN)ccnc23)cc1 [Example 18]
 | 16 (≈ 48 µM) | CC(C)(C)c1ccc(-c2nnc(CNC(=N)N)c3ccccc23)cc1 [Example 19]
 | 4 (≈ 12 µM) | CC(C)(C)c1cccc(-c2nc(CNC(=N)N)c3ccccc3n2)c1 [Example 20]
2 (≈ 6 µM) | 2 (≈ 6 µM) | CC(C)(C)c1cccc(-c2cnc3cccc(CNC(=N)N)c3n2)c1 [Example 21]
8 (≈ 24 µM) | 4 (≈ 12 µM) | CC(C)(C)c1cccc(-c2cnc3cc(CNC(=N)N)ccc3n2)c1 [Example 22]

Reference: US9822108B2, “Antimicrobial agents” (RUTGERS, THE STATE UNIVERSITY OF NEW JERSEY, priority 2012, dated 2017)
